Reference: PubChem BioAssay (NCI)
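Interpolation was linear, between the two tested concentrations surrounding the appropriate level; five concentrations were tested over 48 hours in 96-well plates. GI50 is the concentration that inhibits growth by half. At the TGI there is no net growth.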

Legend:
Test in all cases: growth of human tumour cells (NCI), 48 h
[1] = system: 786-0 renal
[2] = system: A549 NSCLC
[3] = system: IGROV1 ovarian
[4] = system: K-562 leukemia
[5] = system: NCI-H226 lung
[6] = system: NCI-H460 lung
[7] = system: OVCAR-5 ovarian
[8] = system: SK-MEL-5 melanoma
[9] = system: SN12C renal
[10] = system: UO-31 renal

| SMILES | GI50 [1] [µM] | TGI [1] [µM] | GI50 [2] [µM] | TGI [2] [µM] | GI50 [3] [µM] | TGI [3] [µM] | GI50 [4] [µM] | TGI [4] [µM] | GI50 [5] [µM] | TGI [5] [µM] | GI50 [6] [µM] | TGI [6] [µM] | GI50 [7] [µM] | TGI [7] [µM] | GI50 [8] [µM] | TGI [8] [µM] | GI50 [9] [µM] | TGI [9] [µM] | GI50 [10] [µM] | TGI [10] [µM] |
| --- | --- | --- | --- | --- | --- | --- | --- | --- | --- | --- | --- | --- | --- | --- | --- | --- | --- | --- | --- | --- |
| CCN(CC)CC(C)Nc1ccc(C)c2sc3ccccc3c(=O)c12 (centres undefined) | 3.14 | 11.2 | 3.02 | 16.8 | 3.9 | 17.1 | 0.216 | 3.15 | 4.21 | 18.8 | 2.05 | 8.25 | 2.95 | 12.4 | 1.48 | 2.85 | 6.77 | 21 | 1.77 | 7.69 |
| CC1(C)C(=O)/C(=C\c2ccco2)C[C@]2(C)[C@H]3CC=C4[C@@H]5C[C@](C)(C(=O)O)CC[C@]5(C)CC[C@@]4(C)[C@]3(C)CC[C@@H]12 | 9.51 | 25 | 4.21 | 21.7 | 8.56 | 28.3 | 5.17 | 93 | 9.92 | 37 | 5.45 | 20.9 | 15.6 | 32.2 | 10.5 | 22.5 | 7.64 | 26 | 5.01 | 19.9 |
| O=C(Nc1ccc(Br)cc1)c1cc(Br)cc(Br)c1O | 3.02 | 29.7 | 2.65 | 7.9 | 3.02 | 15.6 | 3.1 | > 100 | 3.45 | 12.3 | 2.6 | 6.86 | 2.7 | 19.6 | 2.15 | 4.57 | 2.77 | 12.9 | 3.1 | 11.5 |
| CC(C)(C)C([O-])=C1C(=O)c2ccccc2C1=O.CC(C)(C)C([O-])=C1C(=O)c2ccccc2C1=O.CC[O-].CC[O-].[Ti+4] | 47.2 | > 100 | 36.2 | > 100 | 70.4 | > 100 | 44.9 | > 100 | 56.7 | > 100 | 32.1 | > 100 | 34.8 | > 100 | 42.2 | 95.6 | 37.7 | > 100 | 19.1 | 44.5 |
| CCOC(=O)/C(C1=CC(=O)C(=O)c2ccccc21)=C(/C)NCc1ccccc1 | 1.29 | 2.88 | 2.4 | 6.42 | 1.05 |  | 1.3 | 3.24 | 2.62 | 6.38 | 3.23 | 12 | 2.43 | 6.69 | 1.78 | 3.38 | 2.12 | 5.09 | 3.35 | > 100 |
| CC1(C)OC2C(=O)OC(COCc3ccccc3)C2O1 (centres undefined) |  | > 100 |  | > 100 |  | > 100 |  | > 100 |  | > 100 |  | > 100 |  | > 100 |  | > 100 |  | > 100 |  | > 100 |
| COc1ccc(N=Cc2ccc(N(CCC#N)CCC#N)cc2)cc1 |  | > 100 |  | > 100 |  | > 100 |  | > 100 |  | > 100 |  | > 100 |  | > 100 |  | > 100 |  | > 100 |  | > 100 |
